What was measured:
Experiment in all cases: radiometric filter-binding kinase assay
NEK6 (human) = NEK6 (human) (UniProt Q9HC98)
SRPK1 (human) = SRPK1 (human) (UniProt Q96SB4)
MAPK13 (human) = MAPK13 (human) (UniProt O15264)
INSRR (human) = INSRR (human) (UniProt P14616)
FGFR1 (human) = FGFR1 (human) (UniProt P11362)
DYRK3 (human) = DYRK3 (human) (UniProt O43781)
MYLK (human) = MYLK (human) (UniProt Q15746)
MARK1 (human) = MARK1 (human) (UniProt Q9P0L2)
GSK3B (human) = GSK3B (human) (UniProt P49841)
INSR (human) = INSR (human) (UniProt P06213)
Chain of INSR (human) (P06213 whole entry, looked up): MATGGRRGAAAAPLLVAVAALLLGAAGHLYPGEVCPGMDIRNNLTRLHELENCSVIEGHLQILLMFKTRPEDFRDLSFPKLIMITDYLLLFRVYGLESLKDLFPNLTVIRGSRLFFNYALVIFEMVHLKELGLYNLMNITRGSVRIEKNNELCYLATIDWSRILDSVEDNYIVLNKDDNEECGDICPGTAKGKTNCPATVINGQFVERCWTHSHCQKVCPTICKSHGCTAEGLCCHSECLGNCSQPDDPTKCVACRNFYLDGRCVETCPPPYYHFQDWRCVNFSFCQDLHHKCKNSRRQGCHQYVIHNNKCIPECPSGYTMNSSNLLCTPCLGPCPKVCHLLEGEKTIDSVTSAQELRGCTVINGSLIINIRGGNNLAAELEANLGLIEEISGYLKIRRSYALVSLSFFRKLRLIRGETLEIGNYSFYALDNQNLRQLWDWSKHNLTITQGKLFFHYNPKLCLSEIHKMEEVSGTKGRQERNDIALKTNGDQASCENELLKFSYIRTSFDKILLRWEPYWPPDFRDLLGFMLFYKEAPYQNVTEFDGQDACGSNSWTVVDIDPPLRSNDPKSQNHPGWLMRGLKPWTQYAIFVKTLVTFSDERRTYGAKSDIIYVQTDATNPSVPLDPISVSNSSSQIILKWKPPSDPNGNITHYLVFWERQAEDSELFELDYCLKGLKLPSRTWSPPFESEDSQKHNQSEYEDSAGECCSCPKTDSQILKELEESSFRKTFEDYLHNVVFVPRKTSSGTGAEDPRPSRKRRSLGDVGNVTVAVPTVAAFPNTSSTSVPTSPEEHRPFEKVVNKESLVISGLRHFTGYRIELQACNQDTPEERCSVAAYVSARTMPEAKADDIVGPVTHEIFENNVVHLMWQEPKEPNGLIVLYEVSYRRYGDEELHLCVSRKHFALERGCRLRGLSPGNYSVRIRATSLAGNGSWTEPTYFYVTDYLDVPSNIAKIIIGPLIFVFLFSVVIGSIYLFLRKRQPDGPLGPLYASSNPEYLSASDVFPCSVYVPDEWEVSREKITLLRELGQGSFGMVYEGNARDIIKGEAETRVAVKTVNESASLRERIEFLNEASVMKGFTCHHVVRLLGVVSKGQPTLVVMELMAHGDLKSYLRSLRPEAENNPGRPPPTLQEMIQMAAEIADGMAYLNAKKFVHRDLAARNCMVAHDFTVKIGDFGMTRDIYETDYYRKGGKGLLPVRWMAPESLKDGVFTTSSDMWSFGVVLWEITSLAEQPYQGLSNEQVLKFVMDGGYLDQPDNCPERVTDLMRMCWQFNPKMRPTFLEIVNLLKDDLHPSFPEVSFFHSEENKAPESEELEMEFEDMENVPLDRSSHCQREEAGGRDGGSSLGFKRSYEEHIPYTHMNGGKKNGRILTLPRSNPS

[1] = test system: PAK2 (human), Q13177 [T402E]
MAPK11 (human) = MAPK11 (human) (UniProt Q15759)
MARK2 (human) = MARK2 (human) (UniProt Q7KZI7)
MAP3K9 (human) = MAP3K9 (human) (UniProt P80192)
PKN2 (human) = PKN2 (human) (UniProt Q16513)
[2] = test system: RPS6KB1 (human), P23443 [T412E]
NEK2 (human) = NEK2 (human) (UniProt P51955)
TTK (human) = TTK (human) (UniProt P33981)
PIM3 (human) = PIM3 (human) (UniProt Q86V86)
[3] = target: STK11 CAB39 STRADA (human) (UniProt Q9Y376+Q7RTN6+Q15831)
CSNK2A1 (human) = CSNK2A1 (human) (UniProt P68400)
MAP2K6 (human) = MAP2K6 (human) (UniProt P52564)
[4] = test system: AKT1 (human), P31749 [S473D]
Chain of AKT1 (human), P31749 [S473D] (P31749 whole entry S473D, looked up): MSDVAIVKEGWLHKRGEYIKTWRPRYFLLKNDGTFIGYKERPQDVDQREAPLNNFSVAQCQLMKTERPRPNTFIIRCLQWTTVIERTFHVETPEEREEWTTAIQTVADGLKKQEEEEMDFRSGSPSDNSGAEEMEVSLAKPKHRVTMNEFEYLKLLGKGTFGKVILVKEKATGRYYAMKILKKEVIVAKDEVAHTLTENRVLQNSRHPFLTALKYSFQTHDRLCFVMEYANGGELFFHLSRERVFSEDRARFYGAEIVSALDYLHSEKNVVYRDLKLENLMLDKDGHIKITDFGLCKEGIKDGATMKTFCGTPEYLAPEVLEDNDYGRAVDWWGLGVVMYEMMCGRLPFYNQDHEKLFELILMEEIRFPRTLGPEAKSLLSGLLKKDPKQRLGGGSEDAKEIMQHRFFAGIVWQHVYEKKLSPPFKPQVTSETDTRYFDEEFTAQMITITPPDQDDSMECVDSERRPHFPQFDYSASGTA

LCK (mouse) = conditions: accession and sequence are those of the human protein
MAPK10 (human) = MAPK10 (human) (UniProt P53779)
PIM2 (human) = PIM2 (human) (UniProt Q9P1W9)
PHKG1 (human) = PHKG1 (human) (UniProt Q16816)
MAP2K1 (human) = MAP2K1 (human) (UniProt Q02750)
SYK (human) = SYK (human) (UniProt P43405)
EPHA2 (human) = EPHA2 (human) (UniProt P29317)
Chain of EPHA2 (human) (P29317 whole entry, looked up): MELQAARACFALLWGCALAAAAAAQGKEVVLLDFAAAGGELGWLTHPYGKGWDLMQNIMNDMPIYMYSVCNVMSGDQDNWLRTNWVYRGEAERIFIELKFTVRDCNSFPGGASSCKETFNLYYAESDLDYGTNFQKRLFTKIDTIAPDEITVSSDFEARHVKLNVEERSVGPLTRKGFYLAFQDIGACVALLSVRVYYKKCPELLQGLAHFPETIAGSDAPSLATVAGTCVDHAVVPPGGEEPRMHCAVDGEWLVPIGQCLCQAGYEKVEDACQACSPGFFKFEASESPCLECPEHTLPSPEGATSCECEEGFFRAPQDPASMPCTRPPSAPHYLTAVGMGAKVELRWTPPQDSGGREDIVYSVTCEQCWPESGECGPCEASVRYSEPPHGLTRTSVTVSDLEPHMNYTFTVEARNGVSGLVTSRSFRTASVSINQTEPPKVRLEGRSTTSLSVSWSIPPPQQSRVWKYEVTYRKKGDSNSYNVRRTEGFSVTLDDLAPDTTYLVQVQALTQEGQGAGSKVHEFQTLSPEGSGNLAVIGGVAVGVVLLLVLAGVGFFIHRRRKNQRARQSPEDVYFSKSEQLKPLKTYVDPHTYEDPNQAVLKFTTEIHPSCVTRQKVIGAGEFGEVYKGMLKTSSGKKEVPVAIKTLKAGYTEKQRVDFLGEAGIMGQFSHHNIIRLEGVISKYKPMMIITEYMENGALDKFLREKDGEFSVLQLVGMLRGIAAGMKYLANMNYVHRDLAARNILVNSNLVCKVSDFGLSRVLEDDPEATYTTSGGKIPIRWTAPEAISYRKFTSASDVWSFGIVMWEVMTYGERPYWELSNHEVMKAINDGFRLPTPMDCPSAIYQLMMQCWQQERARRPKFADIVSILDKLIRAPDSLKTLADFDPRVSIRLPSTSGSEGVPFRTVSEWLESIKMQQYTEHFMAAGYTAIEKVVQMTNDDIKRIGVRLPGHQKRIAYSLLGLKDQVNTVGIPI

[5] = test system: AKT2 (human), P31751 [S474D]
EPHB1 (human) = EPHB1 (human) (UniProt P54762)
MKNK1 (human) = MKNK1 (human) (UniProt Q9BUB5)
Chain of MKNK1 (human) (Q9BUB5 whole entry, looked up): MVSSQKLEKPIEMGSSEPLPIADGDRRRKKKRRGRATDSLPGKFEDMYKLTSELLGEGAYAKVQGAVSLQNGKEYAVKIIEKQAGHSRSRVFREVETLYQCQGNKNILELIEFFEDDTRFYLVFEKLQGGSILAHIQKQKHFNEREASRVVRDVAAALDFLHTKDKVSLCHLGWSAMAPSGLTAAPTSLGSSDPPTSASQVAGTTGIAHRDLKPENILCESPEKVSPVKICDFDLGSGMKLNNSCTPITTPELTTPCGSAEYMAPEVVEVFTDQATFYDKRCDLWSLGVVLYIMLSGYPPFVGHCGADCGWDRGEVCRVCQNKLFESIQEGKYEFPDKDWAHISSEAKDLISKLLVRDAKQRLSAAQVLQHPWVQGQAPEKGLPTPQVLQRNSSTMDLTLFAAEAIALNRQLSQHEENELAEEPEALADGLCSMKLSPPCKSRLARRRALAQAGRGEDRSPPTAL

ROCK2 (rat) = conditions: accession and sequence are those of the human protein
IRAK4 (human) = IRAK4 (human) (UniProt Q9NWZ3)
TBK1 (human) = TBK1 (human) (UniProt Q9UHD2)

Chain of MAPK13 (human) (O15264 whole entry, looked up): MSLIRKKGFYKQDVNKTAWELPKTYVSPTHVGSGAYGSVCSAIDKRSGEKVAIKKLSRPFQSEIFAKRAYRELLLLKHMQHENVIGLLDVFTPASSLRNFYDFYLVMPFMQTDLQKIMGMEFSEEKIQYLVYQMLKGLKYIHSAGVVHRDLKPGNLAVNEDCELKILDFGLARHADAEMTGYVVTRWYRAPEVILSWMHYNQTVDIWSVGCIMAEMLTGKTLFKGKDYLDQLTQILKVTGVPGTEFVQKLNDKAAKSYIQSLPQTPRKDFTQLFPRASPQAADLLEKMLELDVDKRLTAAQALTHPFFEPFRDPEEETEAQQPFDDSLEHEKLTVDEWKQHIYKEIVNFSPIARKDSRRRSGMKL
Chain of FGFR1 (human) (P11362 whole entry, looked up): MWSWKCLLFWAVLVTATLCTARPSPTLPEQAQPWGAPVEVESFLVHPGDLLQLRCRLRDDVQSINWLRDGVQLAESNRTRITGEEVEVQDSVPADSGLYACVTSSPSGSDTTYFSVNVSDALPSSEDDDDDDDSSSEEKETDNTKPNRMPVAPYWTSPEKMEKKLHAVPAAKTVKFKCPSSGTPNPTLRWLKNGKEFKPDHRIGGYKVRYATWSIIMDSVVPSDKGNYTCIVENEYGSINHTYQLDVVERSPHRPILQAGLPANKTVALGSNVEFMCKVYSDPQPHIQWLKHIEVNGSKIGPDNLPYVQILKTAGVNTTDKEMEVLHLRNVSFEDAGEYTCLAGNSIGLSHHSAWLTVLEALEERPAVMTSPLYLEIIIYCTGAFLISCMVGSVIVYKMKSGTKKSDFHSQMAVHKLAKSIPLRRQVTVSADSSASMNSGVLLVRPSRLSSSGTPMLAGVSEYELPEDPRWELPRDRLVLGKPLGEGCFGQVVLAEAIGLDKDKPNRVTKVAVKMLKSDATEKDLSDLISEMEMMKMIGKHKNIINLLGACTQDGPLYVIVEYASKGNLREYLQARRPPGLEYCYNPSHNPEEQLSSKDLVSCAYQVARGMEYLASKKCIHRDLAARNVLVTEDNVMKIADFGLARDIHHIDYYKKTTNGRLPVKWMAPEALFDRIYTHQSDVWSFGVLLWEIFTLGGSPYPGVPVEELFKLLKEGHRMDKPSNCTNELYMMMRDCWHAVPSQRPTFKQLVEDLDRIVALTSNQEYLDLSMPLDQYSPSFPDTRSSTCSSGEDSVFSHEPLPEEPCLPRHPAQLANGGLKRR

SMILES: Oc1ccc2ccccc2c1SSc1c(O)ccc2ccccc12
- residual activity (NEK6 (human); compound 1.0 µM): 34%
- residual activity (NEK6 (human); compound 5.0 µM): 11%
- residual activity (NEK6 (human); compound 10.0 µM): 65%
- residual activity (SRPK1 (human); compound 1.0 µM): 62%
- residual activity (SRPK1 (human); compound 5.0 µM): 47%
- residual activity (SRPK1 (human); compound 10.0 µM): 84%
- residual activity (MAPK13 (human); compound 1.0 µM): 102%
- residual activity (MAPK13 (human); compound 5.0 µM): 102%
- residual activity (MAPK13 (human); compound 10.0 µM): 104%
- residual activity (INSRR (human); compound 1.0 µM): 84%
- residual activity (INSRR (human); compound 5.0 µM): 47%
- residual activity (INSRR (human); compound 10.0 µM): 83%
- residual activity (FGFR1 (human); compound 1.0 µM): 24%
- residual activity (FGFR1 (human); compound 5.0 µM): 4%
- residual activity (FGFR1 (human); compound 10.0 µM): 29%
- residual activity (DYRK3 (human); compound 1.0 µM): 54%
- residual activity (DYRK3 (human); compound 5.0 µM): 33%
- residual activity (DYRK3 (human); compound 10.0 µM): 74%
- residual activity (MYLK (human); compound 1.0 µM): 74%
- residual activity (MYLK (human); compound 5.0 µM): 51%
- residual activity (MYLK (human); compound 10.0 µM): 87%
- residual activity (MARK1 (human); compound 1.0 µM): 65%
- residual activity (MARK1 (human); compound 5.0 µM): 38%
- residual activity (GSK3B (human); compound 1.0 µM): 68%
- residual activity (GSK3B (human); compound 5.0 µM): 30%
- residual activity (GSK3B (human); compound 10.0 µM): 106%
- residual activity (INSR (human); compound 1.0 µM): 110%
- residual activity (INSR (human); compound 5.0 µM): 93%
- residual activity (INSR (human); compound 10.0 µM): 113%
- residual activity ([1]; compound 1.0 µM): 5%
- residual activity ([1]; compound 5.0 µM): 2%
- residual activity (MAPK11 (human); compound 1.0 µM): 114%
- residual activity (MAPK11 (human); compound 5.0 µM): 112%
- residual activity (MAPK11 (human); compound 10.0 µM): 117%
- residual activity (MARK2 (human); compound 1.0 µM): 85%
- residual activity (MARK2 (human); compound 5.0 µM): 66%
- residual activity (MAP3K9 (human); compound 1.0 µM): 16%
- residual activity (MAP3K9 (human); compound 5.0 µM): 4%
- residual activity (PKN2 (human); compound 1.0 µM): 72%
- residual activity (PKN2 (human); compound 5.0 µM): 30%
- residual activity (PKN2 (human); compound 10.0 µM): 87%
- residual activity ([2]; compound 1.0 µM): 56%
- residual activity ([2]; compound 5.0 µM): 14%
- residual activity ([2]; compound 10.0 µM): 3%
- residual activity (NEK2 (human); compound 1.0 µM): 10%
- residual activity (NEK2 (human); compound 5.0 µM): 8%
- residual activity (NEK2 (human); compound 10.0 µM): 54%
- residual activity (TTK (human); compound 1.0 µM): 68%
- residual activity (TTK (human); compound 5.0 µM): 40%
- residual activity (PIM3 (human); compound 1.0 µM): 76%
- residual activity (PIM3 (human); compound 5.0 µM): 17%
- residual activity (PIM3 (human); compound 10.0 µM): 58%
- residual activity ([3]; compound 1.0 µM): 60%
- residual activity ([3]; compound 5.0 µM): 17%
- residual activity (CSNK2A1 (human); compound 1.0 µM): 104%
- residual activity (CSNK2A1 (human); compound 5.0 µM): 97%
- residual activity (CSNK2A1 (human); compound 10.0 µM): 127%
- residual activity (MAP2K6 (human); compound 1.0 µM): 93%
- residual activity (MAP2K6 (human); compound 5.0 µM): 70%
- residual activity ([4]; compound 1.0 µM): 87%
- residual activity ([4]; compound 5.0 µM): 62%
- residual activity ([4]; compound 10.0 µM): 85%
- residual activity (LCK (mouse); compound 1.0 µM): 99%
- residual activity (LCK (mouse); compound 5.0 µM): 99%
- residual activity (LCK (mouse); compound 10.0 µM): 90%
- residual activity (MAPK10 (human); compound 1.0 µM): 106%
- residual activity (MAPK10 (human); compound 5.0 µM): 77%
- residual activity (PIM2 (human); compound 1.0 µM): 65%
- residual activity (PIM2 (human); compound 5.0 µM): 21%
- residual activity (PIM2 (human); compound 10.0 µM): 81%
- residual activity (PHKG1 (human); compound 1.0 µM): 100%
- residual activity (PHKG1 (human); compound 5.0 µM): 103%
- residual activity (PHKG1 (human); compound 10.0 µM): 108%
- residual activity (MAP2K1 (human); compound 1.0 µM): 85%
- residual activity (MAP2K1 (human); compound 5.0 µM): 18%
- residual activity (MAP2K1 (human); compound 10.0 µM): 96%
- residual activity (SYK (human); compound 1.0 µM): 77%
- residual activity (SYK (human); compound 5.0 µM): 12%
- residual activity (SYK (human); compound 10.0 µM): 92%
- residual activity (EPHA2 (human); compound 1.0 µM): 91%
- residual activity (EPHA2 (human); compound 5.0 µM): 75%
- residual activity (EPHA2 (human); compound 10.0 µM): 97%
- residual activity ([5]; compound 1.0 µM): 1%
- residual activity ([5]; compound 5.0 µM): 0%
- residual activity ([5]; compound 10.0 µM): 0%
- residual activity (EPHB1 (human); compound 1.0 µM): 118%
- residual activity (EPHB1 (human); compound 5.0 µM): 102%
- residual activity (MKNK1 (human); compound 1.0 µM): 88%
- residual activity (MKNK1 (human); compound 5.0 µM): 76%
- residual activity (MKNK1 (human); compound 10.0 µM): 100%
- residual activity (ROCK2 (rat); compound 1.0 µM): 95%
- residual activity (ROCK2 (rat); compound 5.0 µM): 87%
- residual activity (ROCK2 (rat); compound 10.0 µM): 78%
- residual activity (IRAK4 (human); compound 1.0 µM): 47%
- residual activity (IRAK4 (human); compound 5.0 µM): 9%
- residual activity (TBK1 (human); compound 1.0 µM): 59%
- residual activity (TBK1 (human); compound 5.0 µM): 22%
- residual activity (TBK1 (human); compound 10.0 µM): 77%

— the kinase profiling compilation of Christmann-Franck et al. (2016)
